{
  "source": "paper PMC7415810",
  "about": "“A novel nucleolin-binding peptide for Cancer Theranostics” (Theranostics, 2020)",
  "key": {"[1]": {"system": "MDA-MB-231 cells", "experiment": "Time-dependent binding/internalization of AGM-330-FITC, confocal microscopy", "type": "cell-based, human", "settings": "5 μmol/l, 37 °C, 1, 3, 6 and 12 h, confocal fluorescence", "protocol": "We evaluated the specificity of AGM-330 to NCL with cell binding assays against different cell lines using fluorescence microscopy. The experiment was performed using multiple cancer cell lines, MCF-7, MDA-MB-231, HT-29, and HCT-116, and normal cell lines, MCF-10A, and CCD-18Co. The binding specificity was determined by confocal imaging after 1 h of incubation of the cells with 5 μmol/l AGM-330-FITC. The cells were incubated with DAPI to counterstain the nuclei (blue fluorescence). […] To evaluate the ability of AGM-330 to undergo NCL-mediated endocytosis, MDA-MB-231 cells were incubated with AGM-330-FITC at 37 °C for different times (1, 3, 6 and 12 h). […] As mentioned in a previous study, N6L is essentially built on a lysine-rich helicoid template formed by a repeat of 6 tripeptide units. […] Therefore, the difference in the molecular structure between AGM-330 and N6L may be caused by different endocytosis mechanisms. […] However, except for membrane NCL, we could not confirm the protein associated with internalization among the proteins bound to AGM-330 (Figure 2D). Taken together, N6L, which binds to both membrane NCL and nucleophosmin, induce apoptosis after internalization into nucleolus of cancer cells.\nFigure S6. Time-dependent in vitro binding assay of AGM-330-FITC toward cancer cells. MDA-MB-231 cells were incubated with 5 μmol/l AGM-330-FITC for 1, 3, 6 and 12 h at 37 °C. […]"}, "[2]": {"system": "cancer cells (MCF-7, MDA-MB-231, HT-29, HCT-116)", "experiment": "Flow cytometry binding of FITC-labeled peptide", "type": "cell-based, human", "settings": "1 × 10^5 cells, 2 h at 37 °C, serum-free medium", "protocol": "(§1) Fluorescence-activated cell-sorting (FACS) analysis was used to check the binding of the FITC labeled peptides (FITC-peptide). The stock solution for the FITC-peptides (100 μM) was prepared by dissolving the peptide in PBS. MCF-10A, MCF-7, MDA-MB-231, CCD-18Co, HT-29, and HCT-116 cells were seeded in 6-well plates (10^5 cells/well) containing 3 ml of medium, and the plates were then incubated at 37 °C overnight. […] Thereafter, the medium was removed, and the cells were washed with cold PBS to remove any remaining peptide. Adequate trypsin/EDTA was added to each well, which was followed by a 3 ~ 5 min incubation at 37 °C. Trypsin/EDTA was immediately neutralized by adding medium, and the cell suspension was then transferred into centrifuge tubes. The cells were separated and washed twice with PBS. […] The prepared cells were analyzed on a FACScanto II (BD Biosciences, San Jose, CA, USA) flow cytometer, and the FACS data were analyzed using FlowJo (TreeStar, Ashland, OR, USA).\n(§2) Next, to examine whether the MAP ligand can selectively bind to cancer cells, cancer cells treated with FITC-labeled AGM-330 (AGM-330-FITC) were compared with untreated cells. […] Then, the inherent fluorescence of peptide-treated cells were compared and measured based on changes in the mean fluorescence intensity (MFI) values compared to those of untreated cells (Figure 1D and E)."}, "[3]": {"system": "normal cells (MCF-10A, CCD-18Co)", "experiment": "Flow cytometry binding of FITC-labeled peptide", "type": "cell-based, human", "settings": "1 × 10^5 cells, 2 h at 37 °C, serum-free medium", "protocol": "as §1, §2"}, "[4]": {"system": "MDA-MB-231-luc xenograft", "experiment": "Tumorigenesis experiment, MDA-MB-231-luc breast cancer xenograft", "protocol": "All animal experiments were performed in accordance with IACUC guidelines (GIST-2019-040). For tumorigenesis experiments, anesthetized 6-week-old female NOD-scid Il2rg^-^/^- mice (NPG^TM, VITALSTAR) were inoculated in the mammary fat pad with 1 × 10^6 MDA-MB-231-luc cells in a 100 μl volume (n = 5 for each group). After tumor cell inoculation, when the tumor volume reached approximately 100 mm^3, the mice were randomly divided into the following five groups: (i) control, (ii) low-dose paclitaxel (2 mg/kg), (iii) high-dose paclitaxel (10 mg/kg), (iv) AGM-330 (16.68 mg/kg, molar equivalent to 2 mg/kg of PTX), and (v) AGM-330-PTX (19.05 mg/kg, molar equivalent to 2 mg/kg of PTX). The tumor size was measured twice a week, and the tumor volume was calculated with the following formula: volume (mm^3) = [length (mm)] × [width (mm)]^2 × 0.5. For the bioluminescent imaging experiment, D-luciferin (150 mg/kg; PerkinElmer) was intraperitoneally injected into each mouse, and an IVIS 100 imaging system (Xenogen, Corporation, Alameda, CA) was used for bioluminescent monitoring. Mice were anesthetized with vaporized isofurane (BK Pharm, Ilsan, Korea) and placed in an imaging chamber. After 10 min, each animal was imaged with an exposure time of 1 min. All bioluminescent image data were obtained using Living Image software (version 4.5.2, PerkinElmer). Photons detected from tumors were converted to average radiance values (photon/sec/cm^2/sr), which are quantitative data obtained from a region of […] (ROI) and include the photons emitted by bioluminescent cells from an assigned rectangular area over the whole body of each mouse.\nA, Cell proliferation inhibition by AGM-330-PTX treatment was determined for 48 h by the WST assay in multiple breast and colorectal cancer cells and in normal cells. B, Schematic representation of the experimental protocol as described in the materials and methods section. Anesthetized 6‑week-old […] NPG mice were inoculated with a 1:1 mix of Matrigel and 1 × 10^6 MDA-MB-231-luc cells into the mammary fat pad. When the volume of primary tumors reached approximately 100 mm^3, tumor-bearing mice were treated with vehicle (PBS), PTX (2 or 10 mg/kg), AGM-330 (16.68 mg/kg, molar equivalent to 2 mg/kg of PTX), or AGM-330-PTX (19.05 mg/kg, molar equivalent to 2 mg/kg of PTX; n = 5/group). C-E, The therapeutic effect of AGM-330-PTX was evaluated in breast cancer xenograft models. C, Primary tumor volume was measured twice a week until the day of sacrifice. The primary tumor volume was calculated by the formula volume (mm^3) = (length (mm)) × (width (mm))^2 × 0.5. D, On the day of sacrifice, all primary tumors were isolated, and (E) the primary tumor weights were evaluated. F-I, Immunohistochemistry (IHC) sections of representative tumors with Ki-67 (F,H) and TUNEL (G,I) staining. Nuclei were stained with DAPI (blue). Scale bar, 50 µm. Bar graphs represent the mean ± SD, and statistical analyses were performed by one-way ANOVA with Dunnett's multiple comparison. *, **, and *** indicate P < 0.05, P < 0.01, and P < 0.001, respectively.\nFollowing in vitro proliferation analysis on cancer lines, we investigated whether AGM-330-PTX could be a potential therapeutic agent in vivo. We inoculated MDA-MB-231-luc cells into the mammary fat pad of NPG mice. After the […] tumors grew to 100 mm^3, comparative efficacy studies were performed by dividing the animals into five groups (n = 5/group) treated with vehicle (PBS), PTX (2 or 10 mg/kg, respectively), AGM-330 (16.68 mg/kg, molar equivalent to 2 mg/kg of PTX), or AGM-330-PTX (19.05 mg/kg, molar equivalent to 2 mg/kg of PTX) twice a week by tail vein injection (Figure 5B). Tumor growth was monitored by measuring volumes twice a week with a caliber rule over the course of 3 weeks.\nFigure S11. A-E, NPG TM mice bearing MDA-MB-231-luc tumors were treated twice a week for 21 days with […]"}, "[5]": {"experiment": "Release of PTX in vitro (linker hydrolysis) in human serum", "type": "in vitro ADME", "settings": "100 μM stock diluted 10-fold in 100% human serum, 37 °C, HPLC, triplicate", "protocol": "(§3) Stock solutions of AGM-330-PTX (100 μM) were diluted 10-fold with pre-warmed 100% human serum (Sigma-Aldrich) or PBS and incubated at 37 °C for 0, 1, 2, 6 and 12 h. […] Each experiment was performed in triplicate.\n(§4) Figure S10. A, B, Changes in the HPLC chromatogram of AGM-330-PTX after incubation with human serum (A) or PBS (B). C, D, MS spectra of AGM-330-PTX (C) and AGM-330 (D). E, Time-dependent fluorescence imaging of AGM-330-PTX-Rh in MDA-MB-231 cells. Cells were incubated with 5 μmol/l AGM-330-PTX-Rh. […]\n(§5) bit secondary antibody coupled to Alexa Fluor 488. Cells were then fixed with 4 % paraformaldehyde, and the nuclei were stained with DAPI. MERGE represents a merged image of AGM-330, PTX, and nuclear staining by […]"}, "[6]": {"experiment": "Release of PTX in vitro (linker hydrolysis) in PBS", "type": "physicochemical", "settings": "100 μM stock diluted 10-fold in PBS, 37 °C, HPLC, triplicate", "protocol": "as §3, §4, §5"}, "[7]": {"settings": "AGM-330-PTX treatment, xenograft"}},
  "data": [
    {"compound": "AGM-330-FITC (RHGAMVYLK; PEG12 after the C-terminal Lys of each RHGAMVYLK arm, joined to a trilysine core; FITC (by FITC-5-maleimide))", "values": [
      {"measurement": "cellular uptake / internalization", "setting": "[1]", "value": "not taken up by the cytoplasm or nucleolus"},
      {"measurement": "binding to cancer cells (MFI relative to untreated cells)", "setting": "[2]", "value": "significant cancer cell binding"},
      {"measurement": "binding to normal cells (MFI)", "setting": "[3]", "value": "significant decrease in binding to normal cells"}
    ]},
    {"compound": "CSCC[C@H](NC(=O)[C@H](C)NC(=O)CNC(=O)[C@H](Cc1c[nH]cn1)NC(=O)[C@@H](N)CCCNC(=N)N)C(=O)N[C@H](C(=O)N[C@@H](Cc1ccc(O)cc1)C(=O)N[C@@H](CC(C)C)C(=O)N[C@@H](CCCCN)C(=O)NCCOCCOCCOCCOCCOCCOCCOCCOCCOCCOCCOCCOCCC(=O)NCCCC[C@H](NC(=O)CCOCCOCCOCCOCCOCCOCCOCCOCCOCCOCCOCCOCCNC(=O)[C@H](CCCCN)NC(=O)[C@H](CC(C)C)NC(=O)[C@H](Cc1ccc(O)cc1)NC(=O)[C@@H](NC(=O)[C@H](CCSC)NC(=O)[C@H](C)NC(=O)CNC(=O)[C@H](Cc1c[nH]cn1)NC(=O)[C@@H](N)CCCNC(=N)N)C(C)C)C(=O)NCCCC[C@H](NC(=O)[C@H](CCCCNC(=O)CCOCCOCCOCCOCCOCCOCCOCCOCCOCCOCCOCCOCCNC(=O)[C@H](CCCCN)NC(=O)[C@H](CC(C)C)NC(=O)[C@H](Cc1ccc(O)cc1)NC(=O)[C@@H](NC(=O)[C@H](CCSC)NC(=O)[C@H](C)NC(=O)CNC(=O)[C@H](Cc1c[nH]cn1)NC(=O)[C@@H](N)CCCNC(=N)N)C(C)C)NC(=O)CCOCCOCCOCCOCCOCCOCCOCCOCCOCCOCCOCCOCCNC(=O)[C@H](CCCCN)NC(=O)[C@H](CC(C)C)NC(=O)[C@H](Cc1ccc(O)cc1)NC(=O)[C@@H](NC(=O)[C@H](CCSC)NC(=O)[C@H](C)NC(=O)CNC(=O)[C@H](Cc1c[nH]cn1)NC(=O)[C@@H](N)CCCNC(=N)N)C(C)C)C(=O)N[C@@H](CSC1CC(=O)N(CCC(=O)O[C@@H](C(=O)O[C@H]2C[C@@]3(O)[C@@H](OC(=O)c4ccccc4)[C@@H]4[C@]5(OC(C)=O)CO[C@@H]5C[C@H](O)[C@@]4(C)C(=O)[C@H](OC(C)=O)C(=C2C)C3(C)C)[C@@H](NC(=O)c2ccccc2)c2ccccc2)C1=O)C(=O)O)C(C)C", "note": "(stereo partly shown) [AGM-330-PTX]", "values": [
      {"measurement": "average tumor volume", "setting": "[4]; 19.05 mg/kg (molar equivalent to 2 mg/kg of PTX), tail vein twice a week, day 21, n = 5", "value": "807 ± 90", "unit": "mm^3"},
      {"measurement": "final average tumor weight", "setting": "[4]; 19.05 mg/kg (molar equivalent to 2 mg/kg of PTX), tail vein twice a week, n = 5", "value": "1.3 ± 0.1", "unit": "g"},
      {"measurement": "blood chemistry analysis (ALB, GOT, GPT, TP-PS, UA in serum)", "setting": "[4]; 19.05 mg/kg twice a week for 21 days, n = 5", "value": "no adverse signs of toxicity"},
      {"measurement": "mouse body weight versus vehicle (PBS)", "setting": "[4]; 19.05 mg/kg twice a week, 3 weeks, n = 5", "value": "not affected"},
      {"measurement": "histology of excised tumors (H&E, Ki-67, TUNEL)", "setting": "[4]; 19.05 mg/kg twice a week, excised tumors", "value": "a reduction in the number of cancerous cells and an increase in apoptotic cell nuclei"},
      {"measurement": "decrease of average tumor volume with respect to the same dose PTX", "setting": "[4]; 19.05 mg/kg versus PTX 2 mg/kg, n = 5", "value": "approximately 52%"},
      {"measurement": "decrease in tumor volume compared with the PBS-treated group", "setting": "[4]; [7]", "value": 63, "unit": "%"},
      {"measurement": "decrease in tumor weight compared with the PBS-treated group", "setting": "[4]; [7]", "value": 43, "unit": "%"},
      {"measurement": "hydrolysis of the propionic acid linker (release of PTX) in serum", "setting": "[5]", "value": "almost completely hydrolyzed after 2 h"},
      {"measurement": "hydrolysis of the propionic acid linker (release of PTX) in PBS", "setting": "[6]", "value": "fully hydrolyzed in PBS after 12 h"}
    ]}
  ]
}
